Results on 12 molecules are retold here after PubChem BioAssay (NCI).

Test systems include A549 NSCLC; NCI-H522 lung; SF-539 CNS; OVCAR-5 ovarian; KM12 colon; ACHN renal; SF-268 CNS; LOX IMVI melanoma; HCT-15 colon.
Holding throughout (experiment): NCI tumour cell line growth inhibition, 48 h

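Grown in 96-well plates, cells were treated for 48 hours with each compound at five concentrations. Insufficient inhibition: endpoint recorded as highest concentration tested. GI50 is the concentration that inhibits growth by half. TGI: concentration producing complete growth inhibition.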

Take `O=C1c2c(c3c4cc(F)ccc4oc3c3[nH]c4ccccc4c23)C(=O)N1O`: the GI50 with A549 NSCLC was 27.1 µM; in the assay with NCI-H522 lung it was 0.53 µM; in the assay on SF-539 CNS, 1.6 µM; in the assay with OVCAR-5 ovarian, 38.2 µM; in the assay with KM12 colon it was 3.33 µM; with ACHN renal, 0.398 µM. In addition, the GI50 in the assay on SF-268 CNS was 1.2 µM; with LOX IMVI melanoma, 0.5 µM; in the assay on HCT-15 colon it was 1.81 µM. The TGI was > 100 µM with A549 NSCLC; 5.41 µM in the assay on NCI-H522 lung; 9.09 µM in the assay with SF-539 CNS; > 100 µM in the assay on OVCAR-5 ovarian; > 100 µM with KM12 colon; 1.73 µM in the assay with ACHN renal. Also, the figures for the TGI in the assay on SF-268 CNS, in the assay with LOX IMVI melanoma and with HCT-15 colon were 25.4 µM, 2.15 µM and > 100 µM, respectively.
With `CN(C)CCNC(=O)c1cccc2c1C(=O)c1ccccc1C2=O`, the TGI with A549 NSCLC was > 100 µM; in the assay on NCI-H522 lung it was 69.1 µM; in the assay on SF-539 CNS it was > 100 µM; in the assay with OVCAR-5 ovarian it was > 100 µM; in the assay on KM12 colon it was > 100 µM; in the assay on SF-268 CNS, > 100 µM. The TGI in the assay with LOX IMVI melanoma is > 75.1 µM; in the assay with HCT-15 colon, > 84.2 µM.
In the case of `Nc1nnc(N)n1N`, the TGI in the assay with A549 NSCLC, with NCI-H522 lung, with SF-539 CNS, with OVCAR-5 ovarian, with KM12 colon and in the assay with ACHN renal was > 100 µM each time. The TGI with SF-268 CNS, in the assay on LOX IMVI melanoma and in the assay with HCT-15 colon was > 100 µM in each case.
On to `COc1cc(/C=C/c2ccc(OC)c(OC)c2)oc(=O)c1`, for which the TGI in the assay on A549 NSCLC, in the assay with NCI-H522 lung, in the assay on SF-539 CNS, with OVCAR-5 ovarian, with KM12 colon and in the assay on SF-268 CNS was > 250 µM in each case. For the same molecule, the TGI in the assay with LOX IMVI melanoma and in the assay on HCT-15 colon was > 250 µM throughout.
As for `O=C(Nc1ccccc1C(=O)NCc1ccccc1)/C(=C/c1ccccc1O)NC(=O)c1ccccc1`, the TGI with A549 NSCLC, in the assay on NCI-H522 lung, in the assay with SF-539 CNS, in the assay on OVCAR-5 ovarian, in the assay with KM12 colon and in the assay with ACHN renal was > 100 µM in each case. Besides, the TGI in the assay with SF-268 CNS, in the assay with LOX IMVI melanoma and in the assay on HCT-15 colon was > 100 µM each time.
In the case of `COc1ccc(C2=C(OC(C)=O)c3cccn3-c3ccc(Cl)cc3S2)cc1`, the TGI was > 10 µM in the assay on A549 NSCLC; 9.75 µM with KM12 colon; > 10 µM with SF-268 CNS; > 10 µM with LOX IMVI melanoma; > 10 µM in the assay on HCT-15 colon.
As to `CS(=O)(=O)OCCN(CCOS(C)(=O)=O)c1ccc(C=Nc2ccc(-c3csc(Cc4ccccc4)n3)cc2)c(Cl)c1`, the TGI in the assay with A549 NSCLC was > 83.7 µM; in the assay with NCI-H522 lung it was > 76 µM; with SF-539 CNS, > 59.6 µM; in the assay with OVCAR-5 ovarian it was 99.1 µM; with KM12 colon, > 63.9 µM; in the assay on ACHN renal it was > 84 µM. Besides, the TGI in the assay with SF-268 CNS was > 100 µM; with LOX IMVI melanoma it was > 57.3 µM; with HCT-15 colon, > 87.8 µM.
`O=S1(=O)OCCOS(=O)(=O)C1(F)Cc1ccccc1`: the TGI in the assay with A549 NSCLC, with NCI-H522 lung, in the assay on SF-539 CNS, with OVCAR-5 ovarian, in the assay with ACHN renal and in the assay with SF-268 CNS was > 100 µM throughout. For the same molecule, the TGI with LOX IMVI melanoma and with HCT-15 colon was > 100 µM each time.
For `Cc1[nH]n(-c2nc(-c3ccccc3)cc(=O)[nH]2)c(=O)c1CCO`, the TGI in the assay with A549 NSCLC, with SF-539 CNS, in the assay on OVCAR-5 ovarian, with KM12 colon, in the assay on ACHN renal and with SF-268 CNS was > 100 µM throughout. The TGI with LOX IMVI melanoma and with HCT-15 colon was > 100 µM throughout.
For the molecule `O=C1C=C(NCCc2ccc(O)c([N+](=O)[O-])c2)C(=O)c2[nH]cnc21`, the TGI was 93.4 µM in the assay on A549 NSCLC; 57.8 µM in the assay on NCI-H522 lung; 90.5 µM in the assay with SF-539 CNS; > 100 µM with OVCAR-5 ovarian; > 100 µM with KM12 colon; > 100 µM with ACHN renal. Besides, the TGI in the assay on LOX IMVI melanoma and in the assay on HCT-15 colon was > 100 µM in each case.
Consider `COc1ccc(C2CC(c3sc(Nc4ccc(C)cc4)nc3C)=NN2)cc1` (centres undefined), for which the TGI with A549 NSCLC was determined as 33 µM; in the assay with NCI-H522 lung, 31.8 µM; in the assay with SF-539 CNS it was 29 µM; in the assay on OVCAR-5 ovarian, 39.2 µM; in the assay with KM12 colon, 29.5 µM; with SF-268 CNS it was 37.4 µM. In addition, the TGI in the assay on LOX IMVI melanoma came to 34.4 µM; in the assay on HCT-15 colon, 39.1 µM.
As to `COP(=O)(OC)C(N)Cc1c[nH]c2ccccc12` (centres undefined), the TGI in the assay on A549 NSCLC, with NCI-H522 lung, in the assay on OVCAR-5 ovarian, in the assay on ACHN renal, in the assay with LOX IMVI melanoma and in the assay on HCT-15 colon was > 100 µM each time.
